Key:
Swiss albino mice [1] = experiment: Formalin-induced hyperalgesia; format: in vivo; conditions: for number of flinching in the inflammatory phase compared to control group: 10 mg kg^–1 i.p.; for inhibition in vivo at 10 mg/kg: Mus musculus, ip, read-out: % inhibition of algesia (analgesic effect), 10 mg kg^–1 i.p. 30 min before formalin, Swiss albino mice
Solubility observations = format: physicochemical; conditions: enzyme immunoassay medium, in words
COX-2 [2] = molecular target: T1, COX-2 (Homo sapiens, UniProt P35354); experiment: Isothermal titration calorimetry with COX-2; format: binding; conditions: phosphate buffer pH 7.4
T1 sequence (P35354 18-604): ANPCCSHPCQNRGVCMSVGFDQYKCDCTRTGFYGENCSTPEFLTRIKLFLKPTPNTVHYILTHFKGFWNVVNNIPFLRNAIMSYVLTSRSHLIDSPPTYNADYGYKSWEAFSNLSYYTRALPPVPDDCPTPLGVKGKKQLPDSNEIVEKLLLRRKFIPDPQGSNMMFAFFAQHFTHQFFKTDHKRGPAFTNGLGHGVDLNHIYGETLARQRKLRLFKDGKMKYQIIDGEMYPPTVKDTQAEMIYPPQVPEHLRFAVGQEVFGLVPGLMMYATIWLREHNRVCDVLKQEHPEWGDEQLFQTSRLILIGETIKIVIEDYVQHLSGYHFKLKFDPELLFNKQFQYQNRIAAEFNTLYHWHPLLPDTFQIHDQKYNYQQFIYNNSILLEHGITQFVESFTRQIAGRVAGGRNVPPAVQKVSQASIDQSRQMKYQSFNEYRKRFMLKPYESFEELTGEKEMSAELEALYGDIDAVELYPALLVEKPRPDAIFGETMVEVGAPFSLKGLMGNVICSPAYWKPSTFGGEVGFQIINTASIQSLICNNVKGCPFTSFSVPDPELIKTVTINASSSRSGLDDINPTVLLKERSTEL

COX-1 = COX-1 (Homo sapiens, UniProt P23219); experiment: Human whole blood COX-1 assay: calcium ionophore; format: cell-based; conditions: for effect on ionophore-stimulated TXB2 production: 1 μM, in words; for TXB2, +calcium ionophore: compound final concn 1 μM, control 2.00
COX-2 [3] = molecular target: T1, COX-2; experiment: Human whole blood COX-2 assay: LPS-stimulated PGE2 production; format: cell-based; conditions: for effect on PGE2 production in LPS-stimulated blood: 1 μM, in words; for PGE2, +LPS: compound final concn 1 μM, control 1.98
Swiss albino mice [4] = experiment: Acute oral toxicity, 14 days; format: in vivo
[5] = In vivo pharmacokinetic study; design: species or system rat
Swiss albino mice [6] = experiment: Carrageenan-induced paw inflammation; format: in vivo; conditions: for paw thickness compared to untreated control group: carrageenan, in words
[7] = male wistar rat, 10 mg kg^–1 i.p.
[8] = male, Wistar, rat, serum, ip, 10 mg/kg

Sequence of COX-1 (P23219 24-599): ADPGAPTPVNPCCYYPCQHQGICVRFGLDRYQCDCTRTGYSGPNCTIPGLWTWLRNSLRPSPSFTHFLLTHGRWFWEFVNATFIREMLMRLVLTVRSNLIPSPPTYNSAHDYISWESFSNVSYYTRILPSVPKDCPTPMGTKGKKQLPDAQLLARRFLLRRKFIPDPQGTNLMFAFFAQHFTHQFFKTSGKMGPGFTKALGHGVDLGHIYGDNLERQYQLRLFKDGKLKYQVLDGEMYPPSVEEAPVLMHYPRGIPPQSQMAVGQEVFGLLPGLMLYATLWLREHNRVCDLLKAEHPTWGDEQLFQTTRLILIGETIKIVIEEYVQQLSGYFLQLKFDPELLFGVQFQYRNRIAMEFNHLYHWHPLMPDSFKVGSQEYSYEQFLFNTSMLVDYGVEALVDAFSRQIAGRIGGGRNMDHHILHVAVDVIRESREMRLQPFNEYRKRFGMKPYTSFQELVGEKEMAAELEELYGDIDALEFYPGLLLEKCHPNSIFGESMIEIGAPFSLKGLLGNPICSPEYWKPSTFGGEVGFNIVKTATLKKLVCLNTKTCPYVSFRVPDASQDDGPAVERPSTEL

Row | SMILES | number of flinching in the inflammatory phase compared to control group (Swiss albino mice [1]; in words) | inhibition in vivo at 10 mg/kg (Swiss albino mice [1]) | effect on ionophore-stimulated TXB2 production (COX-1) | TXB2, +calcium ionophore (COX-1) | effect on PGE2 production in LPS-stimulated blood (COX-2 [3]) | PGE2, +LPS (COX-2 [3]) | other results
1 | O=Cc1cn(-c2nc(N3CCOCC3)nc(N3CCOCC3)n2)c2ccccc12 [Compound 2, 1-(4,6-Dimorpholino-1,3,5-triazin-2-yl)-1H-indole-3-carbaldehyde] | significantly decreased | 57.4% | – | – | – | – | –
2 | O=C1/C(=C\c2cn(-c3nc(N4CCOCC4)nc(N4CCOCC4)n3)c3ccccc23)c2ccccc2N1c1c(Cl)cccc1Cl [Compound 3, (Z)-1-(2,6-Dichlorophenyl)-3-((1-(4,6-dimorpholino-1,3,5-triazin-2-yl)1H-indolyl)methylene)indolin-2-one] | significantly decreased | 55.6% | – | – | – | – | –
3 | O=C1Nc2ccccc2/C1=C/c1cn(-c2nc(N3CCOCC3)nc(N3CCOCC3)n2)c2ccccc12 [Compound 4, (Z)-3-((1-(4,6-Dimorpholino-1,3,5-triazin-2-yl)-1H-indol-3-yl)methylene)indolin-2-one] | significantly decreased | 61.3% | – | – | – | – | –
4 | CN1C(=O)C(=Cc2cn(-c3nc(N4CCOCC4)nc(N4CCOCC4)n3)c3ccccc23)C(=O)N(C)C1=O [Compound 5, 1,3-Dimethyl-5-((1-(4,6-dimorpholino-1,3,5-triazin-2-yl)-1H-indol-3-yl)methylene)pyrimidine-2,4,6(1,3,5H)-trione] | – | – | – | – | – | – | solubility in the assay medium (Solubility observations): poor solubility
5 | CC1=NN(c2cccc(Cl)c2)C(=O)/C1=C\c1cn(-c2nc(N3CCOCC3)nc(N3CCOCC3)n2)c2ccccc12 [Compound 6, (4Z)-1-(3-Chlorophenyl)-3-methyl-4-((1-(4,6-dimorpholino-1,3,5-triazin-2-yl)-1H-indol-3-yl)methylene)-1H-pyrazol-5(4H)-one] | significantly decreased | – | did not affect | 1.85 ng/mL | significantly decreased | 0.91 ng/mL | analgesic effect on A23187 pretreatment (Swiss albino mice [1]; TXA2 stimulator A23187, in words): did not alter; analgesic effect on pretreatment with L-arginine or L-NAME (Swiss albino mice [1]; given 30 min before compound, in words): did not alter; analgesic effect on pretreatment with substance P (Swiss albino mice [1]; substance P 30 min before compound, in words): significantly attenuated; ΔH COX-2 (ITC) (COX-2 [2]): -9.685 kcal/mol; mortality or gross behavioral impairment (Swiss albino mice [4]; 50, 300 and 2000 mg kg^–1, after the 14th day): no mortality or any gross behavioral impairment; maximum tolerable dose (Swiss albino mice [4]; Swiss albino mice): > 2000 mg kg^–1; tissue histology (liver, kidney, myocardium) (Swiss albino mice [4]; after 14 days, H and E staining): no significant lesions except for some degree of congestion; toxicity (Swiss albino mice [4]; dose of 2000 mg kg^–1): did not exhibit toxicity; Cl/F_obs [5, 7]: 0.0008011 (mg)/(μg/mL)/min; Vz/F_obs [5, 7]: 0.3796 (mg)/(μg/mL); Cmax [5, 8]: 58.5 µg/mL; MRT inf [5, 8]: 8.16 h; Tmax [5, 8]: 3 h; k el [5, 8]: 3.52e-05 s⁻¹; half-life ([5]; male, Wistar, rat, serum, ip, 10 mg/kg, half-life, male wistar rat, 10 mg kg^–1 i.p.): 5.5 h; half-life ([5]; male, Wistar, rat, serum, ip, 10 mg/kg, t1/2, male wistar rat, 10 mg kg^–1 i.p.): 5.47 h; decrease in paw thickness (Swiss albino mice [6]; 30 min after carrageenan): 18%; decrease in paw thickness (Swiss albino mice [6]; 60 min after carrageenan): 14%; paw thickness compared to untreated control group (Swiss albino mice [6]): decrease the paw thickness significantly
6 | O=C1Nc2ccccc2/C1=C/c1cn(-c2nc(N3CCCCC3)nc(N3CCOCC3)n2)c2ccccc12 [Compound 10, (Z)-3-((1-(4-Morpholino-6-(piperidin-1-yl)-1,3,5-triazin-2-yl)-1H-indol-3-yl)methylene)indolin-2-one] | significantly decreased | 54.9% | did not affect | 1.55 ng/mL | significantly decreased | 1.02 ng/mL | –
7 | CC1=NN(c2cccc(Cl)c2)C(=O)/C1=C\c1cn(-c2nc(N3CCCCC3)nc(N3CCOCC3)n2)c2ccccc12 [Compound 12, (Z)-1-(3-Chlorophenyl)-3-methyl-4-((1-(4-morpholino-6-(piperidin-1-yl)-1,3,5-triazin-2-yl)-1H-indol-3-yl)methylene)-1H-pyrazol-5(4H)-one] | significantly decreased | 74.2% | did not affect | 1.75 ng/mL | significantly decreased | 0.95 ng/mL | paw thickness compared to untreated control group (Swiss albino mice [6]): decrease the paw thickness significantly
8 | CC1=NN(c2cccc(Cl)c2)C(=O)/C1=C\c1cn(-c2nc(N3CCCC3)nc(N3CCOCC3)n2)c2ccccc12 [Compound 17, (Z)-1-(3-Chlorophenyl)-3-methyl-4-((1-(4-morpholino-6-(pyrrolidin-1-yl)-1,3,5-triazin-2-yl)-1H-indol-3-yl)methylene)-1H-pyrazol-5(4H)-one] | significantly decreased | – | did not affect | 1.70 ng/mL | significantly decreased | 1.00 ng/mL | –
9 | CC1=NN(c2cccc(Cl)c2)C(=O)/C1=C\c1cn(-c2nc(Cl)nc(N3CCOCC3)n2)c2ccccc12 [Compound 18, (Z)-4-((1-(4-Chloro-6-morpholino-1,3,5-triazin-2-yl)-1H-indol-3-yl)methylene)-1-(3-chlorophenyl)-3-methyl-1H-pyrazol-5(4H)-one] | significantly decreased | 59% | – | – | – | – | –
10 | CC1=NN(c2cccc(Cl)c2)C(=O)/C1=C\c1cn(-c2nc(N3CCCCC3)nc(N3CCCCC3)n2)c2ccccc12 [Compound 22, (Z)-1-(3-Chlorophenyl)-4-((1-(4,6-di(piperidin-1-yl)-1,3,5-triazin-2-yl)-1H-indol-3-yl)methylene)-3-methyl-1H-pyrazol-5(4H)-one] | significantly decreased | 61.9% | – | – | – | – | –
11 | O=C(O)Cc1ccccc1Nc1c(Cl)cccc1Cl [Diclofenac, reference compound] | significantly decreased | – | – | – | – | – | –
12 | COc1ccc2c(c1)c(CC(=O)O)c(C)n2C(=O)c1ccc(Cl)cc1 [Indomethacin, reference compound] | – | – | – | – | – | – | decrease in paw thickness (Swiss albino mice [6]; 30 min after carrageenan): 30%; decrease in paw thickness (Swiss albino mice [6]; 60 min after carrageenan): 25%; paw thickness compared to untreated control group (Swiss albino mice [6]): decrease the paw thickness significantly
